Here are results for four compounds from patent US20260317332A1, “BICYCLIC HETEROCYCLE COMPOUNDS FOR THE TREATMENT OF CANCER” (Hoffmann-La Roche Inc., priority 2023, published 2026).

The target of test [1] is T1, CD73 (Homo sapiens, UniProt P21589).
T1 sequence (P21589 27-574): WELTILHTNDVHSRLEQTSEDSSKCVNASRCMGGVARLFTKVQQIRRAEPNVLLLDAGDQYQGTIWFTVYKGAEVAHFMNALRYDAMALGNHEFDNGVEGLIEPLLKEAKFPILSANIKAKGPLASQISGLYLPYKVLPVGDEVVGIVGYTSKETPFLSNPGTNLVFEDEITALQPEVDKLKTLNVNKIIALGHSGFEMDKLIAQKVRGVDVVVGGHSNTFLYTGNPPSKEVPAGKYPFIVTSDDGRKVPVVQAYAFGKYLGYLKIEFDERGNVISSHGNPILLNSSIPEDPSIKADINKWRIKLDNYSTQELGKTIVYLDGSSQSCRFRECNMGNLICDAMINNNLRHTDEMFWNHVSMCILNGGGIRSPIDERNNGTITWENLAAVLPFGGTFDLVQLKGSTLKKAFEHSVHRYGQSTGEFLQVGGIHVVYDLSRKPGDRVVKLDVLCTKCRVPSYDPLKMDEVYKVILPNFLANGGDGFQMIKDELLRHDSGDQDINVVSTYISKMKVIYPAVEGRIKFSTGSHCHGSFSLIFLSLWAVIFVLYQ
Description: Human CD73 Biochemical Assay. The following applies: 0.05 nM recombinant CD73; AMP 5.56 μM final; 10 min at room temperature; LC/MS adenosine readout; read-out: Enzymatic IC50 against human CD73. The procedure, abridged:
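Recombinant CD73 at 0.05 nM was preincubated with compound 15 min at room temperature in Tris pH 7.5 buffer with 1 mM NaH2PO4. Reaction ran 10 min with 5.56 μM AMP final and was stopped with TCA. Adenosine was quantified by LC-MS/MS MRM against a 13C5-adenosine internal standard using peak area ratios.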

The test system of test [2] is CD4+ T cells. Description: T Cell Proliferation Assay: CD4+ T cell proliferation. The class given is cell-based. The following applies: Homo sapiens, high AMP condition (200 μM AMP, 5 μM EHNA), CD3/CD28 beads, 72 hours, read-out: CD4+ T cell proliferation EC50 (rescue of proliferation). How it is done: (§1) The purpose of this assay is to characterize the potency of inhibitors of CD73 in rescuing adenosine-mediated inhibition of T cell proliferation. CD4+ or CD8+ T cells were isolated from peripheral blood mononuclear cells (PBMCs, HemaCare) by immunomagnetic negative selection using EasySep™ Isolation Kit (STEMCELL Technologies) following the supplier's protocol. Pan T cells were pelleted by centrifugation at 300 gravitational force (g) for 5 minutes at room temperature and re-suspended in PBS. CellTrace™ Violet staining solution (Invitrogen) was added at 1:5,000 and incubated at 37° C. for 20 minutes, protected from light. Complete culture medium [RPMI-1640 (Gibco), 10% Fetal Bovine Serum (Gibco), 2 mM GlutaMAX (Gibco) and 1 mM Sodium Pyruvate (Gibco), 100 U/mL Penicillin-Streptomycin (Gibco) and MEM non-essential amino acids (NEAA) cell culture supplement (1:100, Gibco)] was then added, mixed, and incubated at 37° C. for 5 minutes. Cells were then pelleted by centrifugation at 300 g for 5 minutes at room temperature and re-suspended in fresh, pre-warmed complete culture medium. 50 μL of cells were seeded per well in 96 well u-bottom plates. 50 μL of CD3/CD28 beads-containing medium and 50 μL of media containing compounds were added into cells. 50 μL of media containing AMP and EHNA hydrochloride (Sigma-Aldrich) was added into cells at 200 μM and 5 μM final concentration, respectively. Cells were incubated for 72 hours at 37° C. in a 5% CO2 incubator. 200 μL of PBS was then added to each well and cells were centrifuged at 300 g, 4° C. for 10 minutes. The supernatant was discarded. 50 μL of Human TruStain FcX™ (Fc Receptor Blocking Solution, BioLegend) diluted 1:100 in PBS was added to each well, mixed gently and incubated for 20 minutes at 4° C. 50 μL of staining solution (BioLegend) was added to each well, mixed gently and incubated at 4° C. for 30 minutes. Cells were centrifuged at 300 g, 4° C. for 10 minutes and the supernatant was discarded. The cell pellets were washed with 250 μL of cell staining buffer and centrifuged at 300 g, 4° C. for 10 minutes. The supernatant was discarded and cells were re-suspended in 60 μL of cell staining buffer and analyzed on a flow cytometer.

In test [3] the test system is CD8+ T cells. Description: T Cell Proliferation Assay: CD8+ T cell proliferation. The class given is cell-based. The following applies: high AMP condition (200 μM AMP, 5 μM EHNA), CD3/CD28 beads, 72 hours, read-out: CD8+ T cell proliferation EC50 (rescue of proliferation). How it is done:
as §1

Test [4] addresses T1, CD73. The test can be described thus: CD73 Cellular Assay. Format: cell-based. Set-up: 40 μL of MDA-MB-231 cells (ATCC, HTB-26, breast cancer); host or cells: MDA-MB-231. The following applies: MDA-MB-231 cells; 200 μM AMP working solution; 45 min at 37° C.; malachite readout; read-out: Cellular IC50 against CD73. The procedure, abridged:
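MDA-MB-231 cells (20,000 cells/mL) in HEPES pH 7.4 buffer preincubated 30 min with 1:3 compound dilutions, then AMP (200 μM working solution) added for 45 min at 37 °C, 5% CO2. Released phosphate in supernatant detected by malachite green absorbance at 620 nm; % inhibition normalised to neutral and inhibitor controls.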

The structures appear in SMILES notation.

With `COCCOc1cc([C@@H](Oc2nn(C)c3nnc(-c4c[nH]c(=O)[nH]c4=O)cc23)C(F)F)ccn1` [Example 28, 5-[3-[(1R)-2,2-difluoro-1-[2-(2-methoxyethoxy)-4-pyridyl]ethoxy]-1-methyl-pyrazolo[3,4-c]pyridazin-5-yl]-1H-pyrimidine-2,4-dione], the IC50 in test [1] turned out to be 0.05 nM; in test [4] it was 0.63 nM. Also, the EC50 in test [2] was 0.33 nM; in test [3], 0.56 nM.

As for `Cn1nc(O[C@H](c2ccnc(COCC(F)(F)F)c2)C(F)F)c2cc(-c3c[nH]c(=O)[nH]c3=O)nnc21` [Example 34, 5-[3-[(1R)-2,2-difluoro-1-[2-(2,2,2-trifluoroethoxymethyl)-4-pyridyl]ethoxy]-1-methyl-pyrazolo[3,4-c]pyridazin-5-yl]-1H-pyrimidine-2,4-dione], the IC50 in test [1] came to 0.07 nM; in test [4], 0.42 nM. The EC50 came out at 0.1 nM in test [2] and 0.11 nM in test [3].

For the compound `Cn1nc(O[C@H](c2ccnc(C3CC(F)(F)C3)c2)C(F)F)c2cc(-c3c[nH]c(=O)[nH]c3=O)nnc21` [Example 38, 5-[3-[(1R)-1-[2-(3,3-difluorocyclobutyl)-4-pyridyl]-2,2-difluoro-ethoxy]-1-methyl-pyrazolo[3,4-c]pyridazin-5-yl]-1H-pyrimidine-2,4-dione], the IC50 in test [1] stood at 0.06 nM; in test [4], 0.36 nM. For the same compound, the EC50 in test [2] stood at 0.06 nM; in test [3], 0.07 nM.

Regarding `Cn1nc(O[C@H](c2cc(OC3CC(F)(F)C3)ncn2)C(F)F)c2cc(-c3c[nH]c(=O)[nH]c3=O)nnc21` [Example 42A, 5-[3-[(1R)-1-[6-(3,3-difluorocyclobutoxy)pyrimidin-4-yl]-2,2-difluoro-ethoxy]-1-methyl-pyrazolo[3,4-c]pyridazin-5-yl]-1H-pyrimidine-2,4-dione], the values for the IC50 in test [1] and in test [4] were 0.06 nM and 0.76 nM, respectively. Further, the EC50 was found to be 0.22 nM in test [2] and 0.18 nM in test [3].

A word on the IC50: it is the concentration that inhibits the measured activity by half.
